Assay results taken from US20150361400A1, “COMPOSITIONS AND METHODS FOR MAINTAINING AND IMPROVING PANCREATIC ISLET CELL FUNCTION AND STABILITY” (WAKE FOREST UNIVERSITY HEALTH SCIENCES, priority 2013, published 2015).

Columns and labels:
[1] = test system: isolated cultured human islets; assay: RNA-Seq gene expression in isolated cultured human islets with or without Raloxifene; type: cell-based; conditions: for % decrease in gene expression: 10 nM Raloxifene vs control
Experimental: FIG. 1: Inhibition of estrogen receptor signaling prevents dedifferentiation in cultured islets. Islets were either untreated or treated with an estrogen receptor selective estrogen receptor modulator (SERM; 10 nM Raloxifene). RNA-Seq analysis of cultured islets was performed following 4 days in culture. Raloxifene treatment was for one day on the final day of culture. Expression levels of individual genes were calculated by the method of RPKM (reads per kilobase per million mapped reads). Data is represented as the log of the ratio (Islets-Raloxifene: Islets-no treatment) where positive values indicate an increase in gene expression with Raloxifene treatment. […] (IL-8, CXXL6, SERPINB2, OLFM4).
Following isolation, the islet cell clusters are cultured in Connaught Medical Research Laboratory 1066 medium supplemented with 10 nM Raloxifene. These are the conditions described in the legend to FIG. 1.
An inflammatory gene expression profile is evoked following human islet isolation and culture and suppressed by Raloxifene treatment. Gene expression was assessed in isolated cultured human islets on multiple days following the isolation procedure. Islets were cultured in standard CMRL media with or without the addition of Raloxifene and gene expression profiles were assessed by RNA-Seq. In table 2A, the progressive increase of NFkB-target gene expression is observed over consecutive days in culture. Of note, significant increases in canonical NFkB targets (CCL2, CCL20, IL1B) as well as NFkB coordinately regulated gene clusters, such as the innate immunity gene cluster (APOL1-APOL6) were observed. In table 2B, Raloxifene treatment (10 nM) suppressed gene expression of the innate immunity gene cluster (APOL1-APOL6) which is typically observed to increase with the isolation and culture of human islets. Gene expression was assessed with RNA-Seq and quantification of gene transcripts is represented as RPKM ([…]). Note, three genes (APOL1, APOL2, and APOL6) in the innate immunity gene cluster were each reduced by Raloxifene treatment.

autoimmune diabetes = conditions: treatment of recipient NOD.scid mice before transfer of BDC-2.5 clone; cited from earlier work

SMILES	endocrine phenotype of isolated islet cultures [1]	gene expression of the innate immunity gene cluster (APOL1-APOL6) ([1]; 10 nM Raloxifene)	% decrease in gene expression ([1]; APOL1 gene)	RPKM (Ral) ([1]; APOL1 gene, 10 nM Raloxifene, control 2.1)	% decrease in gene expression ([1]; APOL2 gene)	RPKM (Ral) ([1]; APOL2 gene, 10 nM Raloxifene, control 13.6)	% decrease in gene expression ([1]; APOL6 gene)	RPKM (Ral) ([1]; APOL6 gene, 10 nM Raloxifene, control 1.5)	expression of housekeeping genes ([1]; GAPDH, ACTB, B2M, 10 nM, one day on final day of 4 days culture)	increase in expression of inflammatory genes and genes associated with a dedifferentiation profile ([1]; IL-8, CXXL6, SERPINB2, OLFM4, 10 nM, one day on final day of 4 days culture)	expression of genes associated with a differentiated phenotype ([1]; SYT8, INS, 10 nM, one day on final day of 4 days culture)	onset of diabetes (disease) (autoimmune diabetes)
O=C(c1ccc(OCCN2CCCCC2)cc1)c1c(-c2ccc(O)cc2)sc2cc(O)ccc12 [Raloxifene]	preserved the endocrine phenotype	suppressed	15%	1.8 RPKM	68%	4.3 RPKM	41%	0.9 RPKM	without effect	prevented	increased expression	–
CCN1C=CC=C/C1=C1/C2=NC(=C(c3cccc[n+]3CC)C3=NC(=C(c4cccc[n+]4CC)c4ccc([n-]4)C(c4cccc[n+]4CC)=C4C=CC1=N4)C=C3)C=C2.[Cl-].[Cl-].[Cl-].[Cl-].[Cl-].[Mn+3] [AEOL-10113]	–	–	–	–	–	–	–	–	–	–	–	significantly delayed or prevented altogether
